From ChEMBL document CHEMBL4177611, “Discovery of aminocyclohexene analogues as selective and orally bioavailable hNav1.7 inhibitors for analgesia” (Bioorg Med Chem Lett, 2017)

What was measured:
[1] = Oral bioavailability in Sprague-Dawley rat at 10 mg/kg administered as single dose via gavage by LC-MS/MS analysis; format: ADME, organism-based; details: in vivo
[2] = Clearance in Sprague-Dawley rat at 3 mg/kg administered as single iv bolus by LC-MS/MS analysis; format: ADME, organism-based; details: in vivo
[3] = Cmax in Sprague-Dawley rat at 10 mg/kg administered as single dose via oral gavage by LC-MS/MS analysis; format: ADME, organism-based; set-up: dose 10 mg/kg, route oral; details: in vivo
[4] = Half life in Sprague-Dawley rat at 10 mg/kg administered as single dose via oral gavage by LC-MS/MS analysis; format: ADME, organism-based; details: in vivo
[5] = Metabolic stability in rat liver microsomes assessed as parent compound remaining at 10 uM measured up to 60 mins in presence of NADPH by LC-MS analysis; format: ADME, microsome; details: read-out: Stability
[6] = Metabolic stability in dog liver microsomes assessed as parent compound remaining at 10 uM measured up to 60 mins in presence of NADPH by LC-MS analysis; format: ADME, Canis lupus familiaris, microsome; details: read-out: Stability
[7] = Drug metabolism in human liver microsomes assessed as oxygenation by measuring M3 metabolite formation at 10 uM measured up to 60 mins in presence of NADPH by LC-MS analysis relative to total metabolite peak area; format: ADME, microsome; details: 1 h
[8] = Drug metabolism in po dosed rat plasma assessed as deethylation by measuring 4-(((1R,6R)-6-amino-2-(4-fluorophenyl)cyclohex-2-enyl)methoxy)-5-chloro-2-fluoro-N-(thiazol-4-yl)benzenesulfonamide metabolite formation; format: ADME, organism-based; details: in vivo
[9] = Fraction unbound in rat plasma at 2 uM after 4 hrs by LC-MS/MS analysis; format: ADME, cell-free
[10] = Plasma concentration in Sprague-Dawley rat spinal nerve ligation model at 100 mg/kg administered as single dose via oral gavage measured after 1 hr by LC-MS/MS analysis; format: ADME, organism-based
[11] = Unbound plasma concentration in Sprague-Dawley rat spinal nerve ligation model at 30 mg/kg administered as single dose via oral gavage measured after 2 hrs by LC-MS/MS analysis; format: ADME, organism-based; details: in vivo
[12] = Unbound plasma concentration in Sprague-Dawley rat spinal nerve ligation model at 100 mg/kg administered as single dose via oral gavage measured after 4 hrs by LC-MS/MS analysis; format: ADME, organism-based; details: in vivo
[13] = Drug uptake in Sprague-Dawley rat dorsal root ganglion at 100 mg/kg, ig measured after 1.5 hrs by LC-MS/MS analysis; format: ADME, organism-based; details: in vivo, po
[14] = target: Cytochrome P450 3A4 (Homo sapiens, UniProt P08684)
[15] = physchem; details: buffer, pH 7.4

Sequence of Cytochrome P450 3A4 (P08684 whole entry): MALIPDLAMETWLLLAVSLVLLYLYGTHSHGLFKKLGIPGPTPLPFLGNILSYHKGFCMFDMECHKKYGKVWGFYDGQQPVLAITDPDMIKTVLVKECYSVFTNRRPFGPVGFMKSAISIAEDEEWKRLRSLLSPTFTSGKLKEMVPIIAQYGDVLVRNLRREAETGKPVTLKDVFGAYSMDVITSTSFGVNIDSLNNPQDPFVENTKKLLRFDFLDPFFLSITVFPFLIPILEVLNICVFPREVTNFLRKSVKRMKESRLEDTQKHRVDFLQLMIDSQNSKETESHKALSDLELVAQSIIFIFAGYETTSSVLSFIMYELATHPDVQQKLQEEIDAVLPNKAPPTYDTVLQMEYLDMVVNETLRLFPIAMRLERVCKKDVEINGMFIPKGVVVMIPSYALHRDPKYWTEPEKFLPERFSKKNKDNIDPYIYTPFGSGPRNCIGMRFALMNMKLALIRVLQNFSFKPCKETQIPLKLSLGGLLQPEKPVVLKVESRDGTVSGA

Question: Which results are given for CCN[C@@H]1CCC=C(c2ccc(F)cc2)[C@H]1COc1cc(F)c(S(=O)(=O)Nc2cscn2)cc1Cl.Cl?
Answer: bioavailability [1]: 37%; clearance [2]: 37 mL/min/kg; Cmax [3]: 620 nM; half-life [4]: 2.56 h; remaining at 1 h, 10 µM [5]: 49.7%; remaining at 1 h, 10 µM [6]: 81.2%; Drug metabolism [7]: Metabolite_Detected; Drug metabolism [8]: Metabolite_Detected; fraction unbound at 4 h, 2 µM [9]: 0.035; concentration at 1 h [10]: 8480 nM; Cp(f) [11]: 75 nM; Cp(f) [12]: 163 nM; Drug uptake [13]: 2.6 µM/g; IC50 [14]: 43.4 µM; logD [15]: 1.79
